{
  "source": "patent US20070253953A1",
  "about": "“Molecular Signature of the Pten Tumor Suppressor” (REGENTS OF THE UNIVERSITY OF CALIFORNIA, THE, priority 2003, published 2007)",
  "key": {"[1]": {"system": "PTEN mutated tumors", "conditions": "cited from earlier work"}, "[2]": {"system": "LNCaP cells", "assay": "Cell cycle analysis of LNCaP cells treated with PI3K inhibitor", "assay_type": "cell-based", "excerpt": "FIG. 5. IGFBP2 plays a functional role in the PI3K-Akt pathway. (A) Cell cycle analysis of vector or IGFBP2 infected LNCaP cells treated with PI3K inhibitor (LY294002). (B and C) Clonagenic assay on wild-type or IGFBP2 knockout mouse embryonic fibroblasts with or without constitutive-active Akt expression (B), or myc expression (C). To examine if IGFBP2 is involved in the PI3K signaling, a pharmacological approach was employed. Consistent with the result in FIG. 3B, LNCaP cells have a high basal level of Akt activation. […] To examine if IGFBP2 plays a biological role for Akt function, clonogenic assay was performed using IGFBP2 knockout MEF (23). While Akt promoted colony formation in IGFBP2 wild type MEF (FIG. 5B, top and left panel), deletion of IGFBP2 abrogated this promoting activity. The requirement of IGFBP2 is specific to Akt because c-myc promoted colony formation in both cells (FIG. 5C). The inability of Akt to promote colony formation in IGFBP2 knockout MEF can be rescued by re-introduction of IGFBP2 (FIG. 5B)."}, "[3]": {"system": "IGFBP2", "conditions": "patients treated (ref 28); cited from earlier work"}},
  "data": [
    {"compound": "CO[C@H]1C[C@@H]2CC[C@@H](C)[C@@](O)(O2)C(=O)C(=O)N2CCCC[C@H]2C(=O)O[C@H]([C@H](C)C[C@@H]2CC[C@@H](OC(=O)C(C)(CO)CO)[C@H](OC)C2)CC(=O)[C@H](C)/C=C(\\C)[C@@H](O)[C@@H](OC)C(=O)[C@H](C)C[C@H](C)/C=C/C=C/C=C/1C", "note": "[CCI-779]", "values": [
      {"measurement": "inhibition of PTEN mutated cancer cells", "setting": "[1]; PTEN mutated cancer cells", "value": "effectively inhibits"},
      {"measurement": "sensitivity of tumors with PTEN mutations", "setting": "[1]; tumors with PTEN mutations (refs 22, 27)", "value": "more sensitive"}
    ]},
    {"compound": "O=c1cc(N2CCOCC2)oc2c(-c3ccccc3)cccc12", "note": "[LY294002]", "values": [
      {"measurement": "decrease of the percentage of cells in S phase", "setting": "[2]", "value": 40, "unit": "%"}
    ]},
    {"compound": "IGF-l: insulin-like growth factor 1, a stimulus for Akt activation", "values": [
      {"measurement": "level of IGFBP2 in serum", "setting": "[3]", "value": "elevated level"}
    ]}
  ]
}
